Data: patent US10562935B2, “Stapled peptides and uses thereof” (London Health Sciences Centre Research Inc., priority 2015, dated 2020)
Bridges are numbered along the chain shown (N, C = ends).

System: RHAMM-overexpressing (LR21) cells
Assay: Cell migration assay (Boyden chamber, Chemicon ECM510)
Format: cell-based
Conditions: for Migration (% inhib.): % inhibition relative to positive control; for inhibition of cell migration (in words): 10 ng/mL peptide, 20 hours, compared to 30% serum control
Method: Compounds 132, 133, 150-152, 156-161, 265-269, 275, 277, and 278 were evaluated for their ability to inhibit cell migration. Cell migration assays were performed using Chemicon Assay Kits (ECM510 (Migration); Billerica, Mass., USA) according to the manufacturer's protocol. Briefly, sub-confluent cultures of RHAMM-overexpressing (LR21) cells were serum starved overnight. 7.5×10^4 cells were then plated in the upper chamber of a Boyden chamber. either in the presence or absence of 10 ng/mL of peptide. 30% fetal bovine serum in DMEM was used as the chemo-attractant in the lower chamber. The number of cells that had crossed the membrane after 20 hours was assessed using the CYQUANT GR Dye and lysis buffer solution provided in the kit. Fluorescence was measured with a fluorescent plate reader using a 480/520 nm filter set.
Values are the mean and SDM of n=3 replicates. *p<0.05, **p<0.01. All statistics compare to 30% serum control. In FIGS. 41-43, where bars are labeled with two compound numbers (“133/150” and “135/152”) this means that the data were pooled for the indicated compounds, i.e., for the non-acetylated and acetylated versions of the indicated peptides.

| Substance | Migration (% inhib.) | inhibition of cell migration (in words) |
| --- | --- | --- |
| Ac-(cyclo-10-14, cyclo-15-19)-KIKHVVKLK[EENSK][KKSEE]SKLRSQLVKRK-NH2 (Ac-KIKHVVKLKEENSKKKSEESKLRSQLVKRK-NH2; lactam 10-14, 15-19; SMILES CC[C@H](C)[C@H](NC(=O)[C@H](CCCCN)NC(C)=O)C(=O)N[C@@H](CCCCN)C(=O)N[C@@H](Cc1c[nH]cn1)C(=O)N[C@H](C(=O)N[C@H](C(=O)N[C@@H](CCCCN)C(=O)N[C@@H](CC(C)C)C(=O)N[C@@H](CCCCN)C(=O)N[C@H]1CCC(=O)NCCCC[C@@H](C(=O)N[C@H]2CCCCNC(=O)CC[C@@H](C(=O)N[C@@H](CO)C(=O)N[C@@H](CCCCN)C(=O)N[C@@H](CC(C)C)C(=O)N[C@@H](CCCNC(=N)N)C(=O)N[C@@H](CO)C(=O)N[C@@H](CCC(N)=O)C(=O)N[C@@H](CC(C)C)C(=O)N[C@H](C(=O)N[C@@H](CCCCN)C(=O)N[C@@H](CCCNC(=N)N)C(=O)N[C@@H](CCCCN)C(N)=O)C(C)C)NC(=O)[C@H](CCC(=O)O)NC(=O)[C@H](CO)NC(=O)[C@H](CCCCN)NC2=O)NC(=O)[C@H](CO)NC(=O)[C@H](CC(N)=O)NC(=O)[C@H](CCC(=O)O)NC1=O)C(C)C)C(C)C) [Compound 268] | 0 % inhib. | – |
| Ac-(cyclo-6,10)-NLKQK[EKHVK]KLKDE-NH2 (Ac-NLKQKEKHVKKLKDE-NH2; lactam 6-10; SMILES CC(=O)N[C@@H](CC(N)=O)C(=O)N[C@@H](CC(C)C)C(=O)N[C@@H](CCCCN)C(=O)N[C@@H](CCC(N)=O)C(=O)N[C@@H](CCCCN)C(=O)N[C@H]1CCC(=O)NCCCC[C@@H](C(=O)N[C@@H](CCCCN)C(=O)N[C@@H](CC(C)C)C(=O)N[C@@H](CCCCN)C(=O)N[C@@H](CC(=O)O)C(=O)N[C@@H](CCC(=O)O)C(N)=O)NC(=O)[C@H](C(C)C)NC(=O)[C@H](Cc2c[nH]cn2)NC(=O)[C@H](CCCCN)NC1=O) [Compound 159] | 0 % inhib. | – |
| Ac-NLKQKIKHVVKLKDENSQLKSEVSKLRSQLVKRKQN-NH2 [Compound 275] | 60 % inhib. | significantly inhibit cell migration |
| Ac-(cyclo-8,12)-NLKQKIK[EVVKK]KDE-NH2 (Ac-NLKQKIKEVVKKKDE-NH2; lactam 8-12; SMILES CC[C@H](C)[C@H](NC(=O)[C@H](CCCCN)NC(=O)[C@H](CCC(N)=O)NC(=O)[C@H](CCCCN)NC(=O)[C@H](CC(C)C)NC(=O)[C@H](CC(N)=O)NC(C)=O)C(=O)N[C@@H](CCCCN)C(=O)N[C@H]1CCC(=O)NCCCC[C@@H](C(=O)N[C@@H](CCCCN)C(=O)N[C@@H](CC(=O)O)C(=O)N[C@@H](CCC(=O)O)C(N)=O)NC(=O)[C@H](CCCCN)NC(=O)[C@H](C(C)C)NC(=O)[C@H](C(C)C)NC1=O) [Compound 161] | 36 % inhib. | significantly inhibit cell migration |
| Ac-KIKHVVKLKDENSQLKSEVSKLRSQLVKRK-NH2 [Compound 265] | 63 % inhib. | significantly inhibit cell migration |
| Ac-(cyclo-5,9)-VSKL[ESQLK]KRKQN-NH2 (Ac-VSKLESQLKKRKQN-NH2; lactam 5-9; SMILES CC(=O)N[C@H](C(=O)N[C@@H](CO)C(=O)N[C@@H](CCCCN)C(=O)N[C@@H](CC(C)C)C(=O)N[C@H]1CCC(=O)NCCCC[C@@H](C(=O)N[C@@H](CCCCN)C(=O)N[C@@H](CCCNC(=N)N)C(=O)N[C@@H](CCCCN)C(=O)N[C@@H](CCC(N)=O)C(=O)N[C@@H](CC(N)=O)C(N)=O)NC(=O)[C@H](CC(C)C)NC(=O)[C@H](CCC(N)=O)NC(=O)[C@H](CO)NC1=O)C(C)C) [Compound 151] | 59 % inhib. | significantly inhibit cell migration |
| Ac-(cyclo-6,10)-VSKLR[EQLVK]RKQN-NH2 (Ac-VSKLREQLVKRKQN-NH2; lactam 6-10; SMILES CC(=O)N[C@H](C(=O)N[C@@H](CO)C(=O)N[C@@H](CCCCN)C(=O)N[C@@H](CC(C)C)C(=O)N[C@@H](CCCNC(=N)N)C(=O)N[C@H]1CCC(=O)NCCCC[C@@H](C(=O)N[C@@H](CCCNC(=N)N)C(=O)N[C@@H](CCCCN)C(=O)N[C@@H](CCC(N)=O)C(=O)N[C@@H](CC(N)=O)C(N)=O)NC(=O)[C@H](C(C)C)NC(=O)[C@H](CC(C)C)NC(=O)[C@H](CCC(N)=O)NC1=O)C(C)C) [Compound 152] | – | significantly inhibit cell migration |
| Ac-(cyclo-5,9)-NLKQ[EIKHK]VKLKDE-NH2 (Ac-NLKQEIKHKVKLKDE-NH2; lactam 5-9; SMILES CC[C@H](C)[C@@H]1NC(=O)[C@@H](NC(=O)[C@H](CCC(N)=O)NC(=O)[C@H](CCCCN)NC(=O)[C@H](CC(C)C)NC(=O)[C@H](CC(N)=O)NC(C)=O)CCC(=O)NCCCC[C@@H](C(=O)N[C@H](C(=O)N[C@@H](CCCCN)C(=O)N[C@@H](CC(C)C)C(=O)N[C@@H](CCCCN)C(=O)N[C@@H](CC(=O)O)C(=O)N[C@@H](CCC(=O)O)C(N)=O)C(C)C)NC(=O)[C@H](Cc2c[nH]cn2)NC(=O)[C@H](CCCCN)NC1=O) [Compound 158] | 43 % inhib. | significantly inhibit cell migration |
| Ac-(cyclo-4,8)-NLK[EKIKK]VVKLKDE-NH2 (Ac-NLKEKIKKVVKLKDE-NH2; lactam 4-8; SMILES CC[C@H](C)[C@@H]1NC(=O)[C@H](CCCCN)NC(=O)[C@@H](NC(=O)[C@H](CCCCN)NC(=O)[C@H](CC(C)C)NC(=O)[C@H](CC(N)=O)NC(C)=O)CCC(=O)NCCCC[C@@H](C(=O)N[C@H](C(=O)N[C@H](C(=O)N[C@@H](CCCCN)C(=O)N[C@@H](CC(C)C)C(=O)N[C@@H](CCCCN)C(=O)N[C@@H](CC(=O)O)C(=O)N[C@@H](CCC(=O)O)C(N)=O)C(C)C)C(C)C)NC(=O)[C@H](CCCCN)NC1=O) [Compound 157] | 0 % inhib. | – |
| Ac-(cyclo-28-32)-NLKQKIKHVVKLKDENSQLKSEVSKLR[EQLVK]RKQN-NH2 (Ac-NLKQKIKHVVKLKDENSQLKSEVSKLREQLVKRKQN-NH2; lactam 28-32; SMILES CC[C@H](C)[C@H](NC(=O)[C@H](CCCCN)NC(=O)[C@H](CCC(N)=O)NC(=O)[C@H](CCCCN)NC(=O)[C@H](CC(C)C)NC(=O)[C@H](CC(N)=O)NC(C)=O)C(=O)N[C@@H](CCCCN)C(=O)N[C@@H](Cc1c[nH]cn1)C(=O)N[C@H](C(=O)N[C@H](C(=O)N[C@@H](CCCCN)C(=O)N[C@@H](CC(C)C)C(=O)N[C@@H](CCCCN)C(=O)N[C@@H](CC(=O)O)C(=O)N[C@@H](CCC(=O)O)C(=O)N[C@@H](CC(N)=O)C(=O)N[C@@H](CO)C(=O)N[C@@H](CCC(N)=O)C(=O)N[C@@H](CC(C)C)C(=O)N[C@@H](CCCCN)C(=O)N[C@@H](CO)C(=O)N[C@@H](CCC(=O)O)C(=O)N[C@H](C(=O)N[C@@H](CO)C(=O)N[C@@H](CCCCN)C(=O)N[C@@H](CC(C)C)C(=O)N[C@@H](CCCNC(=N)N)C(=O)N[C@H]1CCC(=O)NCCCC[C@@H](C(=O)N[C@@H](CCCNC(=N)N)C(=O)N[C@@H](CCCCN)C(=O)N[C@@H](CCC(N)=O)C(=O)N[C@@H](CC(N)=O)C(N)=O)NC(=O)[C@H](C(C)C)NC(=O)[C@H](CC(C)C)NC(=O)[C@H](CCC(N)=O)NC1=O)C(C)C)C(C)C)C(C)C) [Compound 277] | 63 % inhib. | significantly inhibit cell migration |
| Ac-(cyclo-11-15, cyclo-16-20)-KIKHVVKLKD[ENSQK][ESEVK]KLRSQLVKRIK-NH2 [Compound 267] | 0 % inhib. | – |
| Ac-(cyclo-10-14, cyclo-15-19)-KIKHVVKLK[EENSK][EKSEK]SKLRSQLVKRK-NH2 (Ac-KIKHVVKLKEENSKEKSEKSKLRSQLVKRK-NH2; lactam 10-14, 15-19; SMILES CC[C@H](C)[C@H](NC(=O)[C@H](CCCCN)NC(C)=O)C(=O)N[C@@H](CCCCN)C(=O)N[C@@H](Cc1c[nH]cn1)C(=O)N[C@H](C(=O)N[C@H](C(=O)N[C@@H](CCCCN)C(=O)N[C@@H](CC(C)C)C(=O)N[C@@H](CCCCN)C(=O)N[C@H]1CCC(=O)NCCCC[C@@H](C(=O)N[C@H]2CCC(=O)NCCCC[C@@H](C(=O)N[C@@H](CO)C(=O)N[C@@H](CCCCN)C(=O)N[C@@H](CC(C)C)C(=O)N[C@@H](CCCNC(=N)N)C(=O)N[C@@H](CO)C(=O)N[C@@H](CCC(N)=O)C(=O)N[C@@H](CC(C)C)C(=O)N[C@H](C(=O)N[C@@H](CCCCN)C(=O)N[C@@H](CCCNC(=N)N)C(=O)N[C@@H](CCCCN)C(N)=O)C(C)C)NC(=O)[C@H](CCC(=O)O)NC(=O)[C@H](CO)NC(=O)[C@H](CCCCN)NC2=O)NC(=O)[C@H](CO)NC(=O)[C@H](CC(N)=O)NC(=O)[C@H](CCC(=O)O)NC1=O)C(C)C)C(C)C) [Compound 266] | 61 % inhib. | significantly inhibit cell migration |
| Ac-(cyclo-7,11)-NLKQKI[EHVVK]LKDE-NH2 (Ac-NLKQKIEHVVKLKDE-NH2; lactam 7-11; SMILES CC[C@H](C)[C@H](NC(=O)[C@H](CCCCN)NC(=O)[C@H](CCC(N)=O)NC(=O)[C@H](CCCCN)NC(=O)[C@H](CC(C)C)NC(=O)[C@H](CC(N)=O)NC(C)=O)C(=O)N[C@H]1CCC(=O)NCCCC[C@@H](C(=O)N[C@@H](CC(C)C)C(=O)N[C@@H](CCCCN)C(=O)N[C@@H](CC(=O)O)C(=O)N[C@@H](CCC(=O)O)C(N)=O)NC(=O)[C@H](C(C)C)NC(=O)[C@H](C(C)C)NC(=O)[C@H](Cc2c[nH]cn2)NC1=O) [Compound 160] | 0 % inhib. | – |
